Common to all, as to type: biochemical
The target in test [1] is T1, CYP2B1 (Rattus norvegicus, UniProt P00176).
T1 construct: native enzyme in rat liver microsomes; benzyloxyresorufin O-dealkylation (BROD) read-out
T1 sequence (P00176 1-491): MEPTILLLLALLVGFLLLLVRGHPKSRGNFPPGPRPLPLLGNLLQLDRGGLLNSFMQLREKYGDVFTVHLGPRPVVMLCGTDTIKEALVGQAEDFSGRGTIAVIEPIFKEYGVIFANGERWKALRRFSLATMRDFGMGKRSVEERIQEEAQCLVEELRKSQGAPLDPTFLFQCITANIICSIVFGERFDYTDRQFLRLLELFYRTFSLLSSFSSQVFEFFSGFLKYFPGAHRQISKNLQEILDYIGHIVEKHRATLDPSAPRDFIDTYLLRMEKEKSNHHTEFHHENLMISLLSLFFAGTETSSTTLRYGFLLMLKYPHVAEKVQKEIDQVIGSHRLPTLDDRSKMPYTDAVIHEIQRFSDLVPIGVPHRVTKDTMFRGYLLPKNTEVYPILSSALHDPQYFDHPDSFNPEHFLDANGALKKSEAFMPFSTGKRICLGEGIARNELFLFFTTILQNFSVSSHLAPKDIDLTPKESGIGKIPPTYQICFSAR
The test is described as follows: Michaelis-Menten fit in rat liver microsomes, HPLC-fluorescence of resorufin. The conditions noted are these: NADPH regeneration system, 0.05 M Tris-HCl pH 7.4, 15 min, 5 μM α-BNF added to block CYP1A1/2.

In a further test the target is T2, CYP2D2 (Rattus norvegicus, UniProt P10634).
T2 construct: gene Cyp2d26; native enzyme in rat liver microsomes; dextromethorphan to dextrorphan read-out
T2 sequence (P10634 1-500): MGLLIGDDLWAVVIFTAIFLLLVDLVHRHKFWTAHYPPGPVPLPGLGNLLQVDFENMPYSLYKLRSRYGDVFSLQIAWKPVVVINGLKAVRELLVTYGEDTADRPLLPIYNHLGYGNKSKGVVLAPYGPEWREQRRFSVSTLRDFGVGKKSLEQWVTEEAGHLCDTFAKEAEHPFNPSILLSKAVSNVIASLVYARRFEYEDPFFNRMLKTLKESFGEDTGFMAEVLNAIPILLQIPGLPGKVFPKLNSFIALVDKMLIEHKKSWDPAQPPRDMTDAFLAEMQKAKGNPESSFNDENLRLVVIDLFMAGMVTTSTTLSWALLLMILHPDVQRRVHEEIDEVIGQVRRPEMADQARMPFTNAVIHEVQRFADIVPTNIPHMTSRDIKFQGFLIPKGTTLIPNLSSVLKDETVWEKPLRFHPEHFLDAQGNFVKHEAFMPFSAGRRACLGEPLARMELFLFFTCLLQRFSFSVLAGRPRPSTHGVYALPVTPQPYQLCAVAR
The test is described as follows: Michaelis-Menten fit in rat liver microsomes, HPLC-fluorescence of dextrorphan. The settings on record: NADPH regeneration system, 0.05 M Tris-HCl pH 7.4, 30 min. A general note: Liver microsomes are a subcellular fraction often used to study metabolism.

Another test concerns T3, CYP3A1/2.
T3 construct: native enzymes in rat liver microsomes; testosterone 6beta-hydroxylation read-out
The test is described as follows: probe substrate conversion in rat liver microsomes, HPLC-MS/MS. The conditions noted are these: testosterone at about Km, NADPH regeneration system, 0.05 M Tris-HCl pH 7.4, 30 min; read-out: IC 50 / Positive control. From the text:
probe substrate conversion in rat liver microsomes, HPLC-MS/MS on CYP3A1/2

Test [2] concerns the target T1, CYP2B1. The test is described as follows: probe substrate conversion in rat liver microsomes, HPLC-fluorescence. The conditions noted are these: benzyloxyresorufin at about Km, 5 μM α-BNF added to block CYP1A1/2, NADPH regeneration system, 0.05 M Tris-HCl pH 7.4, 15 min; read-out: IC 50 / Positive control. The source says: probe substrate conversion in rat liver microsomes, HPLC-fluorescence on CYP2B1

In the next test the test system is T4, CYP1A1/2.
T4 construct: native enzymes in rat liver microsomes; ethoxyresorufin O-deethylation (EROD) read-out
The test is described as above. The settings on record: ethoxyresorufin at about Km, NADPH regeneration system, 0.05 M Tris-HCl pH 7.4, 15 min; read-out: IC 50 / Positive control. The source says:
probe substrate conversion in rat liver microsomes, HPLC-fluorescence on CYP1A1/2

Five compounds from paper PMC12415777, “Dose-dependent modulation of hepatic cytochrome P450 enzymes by tenvermectin: implications for medication safety and combination therapy” (Frontiers in Veterinary Science, 2025) can be followed below.

Regarding `O=c1ccc2nc3ccc(OCc4ccccc4)cc3oc-2c1` [BR], the Km result on CYP2B1 [1] is recorded as “(B) benzyloxyresorufin (BR) (CYP2B1)”.

Consider `COc1ccc2c(c1)[C@]13CCCC[C@@H]1[C@H](C2)N(C)CC3` [DOM], for which the Km entry at CYP2D2 was “(D) dextromethorphan (DOM) (CYP2D2)”.

Consider `CC(=O)N1CCN(c2ccc(OCC3COC(Cn4ccnc4)(c4ccc(Cl)cc4Cl)O3)cc2)CC1` (centres unmarked) [KCZ], for which, in the test on CYP3A1/2, the IC50 is 470 nM.

As to `CC(C)(C(=O)c1cccnc1)c1cccnc1` [MTY], the IC50 on CYP2B1 [2] was determined as 4310 nM.

As for `O=c1cc(-c2ccccc2)oc2c1ccc1ccccc12` [α-BNF], in the test with CYP1A1/2, the IC50 is 1820 nM.
